Assays:
Format in all cases: physicochemical
[1] = Photobleaching / photostability under near-infrared laser irradiation; details: 4:1 MeOH/H2O; for Heating effect during extended near-infrared irradiation: 780 nm, 250 mW, 15 minute, 1.67 μg/mL croconaine 1, 2.00 μg/mL ICG, FIG. 13; for Change in absorbance after laser irradiation: FIGS. 14 and 15
Description: These experiments were conducted in 4:1 MeOH/H2O, with 1.67 μg/mL of croconaine 1 and 2.00 μg/mL of ICG respectively. This difference in compound photobleaching was confirmed with studies that looked at changes in the compound absorption signal.

[2] = Laser photothermal heating of a solution (temperature change by thermocouple); details: for ΔT (temperature change during laser irradiation): 780 nm
Excerpt: This example describes a method of using compound 1 to increase the temperature of a solution. […] An Omega hypodermic thermocouple (HYPO-33-1-T-G-60-SMPW-M) was placed in the solution and the temperature measured using the associated USB converter. The Ti:Sapphire laser beam was aligned to pass through the solution (above the stirrer and avoiding close contact with the thermocouple) in an identical manner in every experiment. The laser wavelength was set at 780 and the power controlled to be 250 mW during all of the experiments, with a beam diameter of 0.3 cm.
[…] An Omega hypodermic thermocouple (HYPO-33-1-T-G-60-SMPW-M) was placed in the solution and the temperature measured using the associated USB converter. The Ti:Sapphire laser beam was aligned to pass through the solution (above the stirrer and avoiding close contact with the thermocouple) in an identical manner in every experiment. The laser wavelength was set at 780 or 808 nm and the power controlled to be 250 mW during all of the experiments, with a beam diameter of 0.3 cm.

[3] = Absorbance of solutions in 4:1 MeOH/H2O; details: 780 nm
[4] = 810 nm, 900 s, 260 mW, 0.005 mg/mL

CC1(C)C(/C=C/C=C/C=C/C=C2\N(CCCCS(=O)(=O)O)c3ccc4ccccc4c3C2(C)C)=[N+](CCCCS(=O)(=O)[O-])c2ccc3ccccc3c21 [ICG, indocyanine green]
Heating effect during extended near-infrared irradiation [1]: loss of heating effect due to photobleaching | Decrease in the absorbance after laser irradiation ([1]; 810 nm, 900 s, 260 mW, 0.005 mg/mL, FIG. 15): ~50% | Change in absorbance after laser irradiation [1, 4]: drop

C#CCOCCN(CC)c1ccc(C2=C([O-])/C(=C3C=C/C(=[N+](/CC)CCOCC#C)S\3)C(=O)C2=O)s1 [Compound 1]
ΔT (temperature change during laser irradiation) ([2]; 0.10 μg/mL, 4:1 MeOH/H2O, 250 mW): 0.1 °C | ΔT (temperature change during laser irradiation) ([2]; 0.25 μg/mL, 4:1 MeOH/H2O, 250 mW): 2.0 °C | ΔT (temperature change during laser irradiation) ([2]; 0.50 μg/mL, 4:1 MeOH/H2O, 250 mW): 3.4 °C | ΔT (temperature change during laser irradiation) ([2]; 1.00 μg/mL, 4:1 MeOH/H2O, 250 mW): 7.2 °C | ΔT (temperature change during laser irradiation) ([2]; 1.67 μg/mL, 4:1 MeOH/H2O, 250 mW): 9.8 °C | ΔT (temperature change during laser irradiation) ([2]; 2.50 μg/mL, 4:1 MeOH/H2O, 250 mW): 10.4 °C | ΔT (temperature change during laser irradiation) ([2]; 5.00 μg/mL, 4:1 MeOH/H2O, 250 mW): 11.0 °C | ΔT (temperature change during laser irradiation) ([2]; 50.0 μg/mL, 4:1 MeOH/H2O, 250 mW): 11.3 °C | Heating on laser irradiation at different wavelengths ([2]; 4:1 MeOH/H2O, 0.05 mg/mL for laser experiments, FIG. 12): proportional to the amount of light absorbed | Dependence of heating on absorbance ([2]; 780 nm laser light, Table 1, FIGS. 10 and 11): linear with absorbance from about A=0 until about A=1 | A (absorbance value) ([3]; 0.10 μg/mL): 0.04 | A (absorbance value) ([3]; 0.25 μg/mL): 0.11 | A (absorbance value) ([3]; 0.50 μg/mL): 0.22 | A (absorbance value) ([3]; 1.00 μg/mL): 0.46 | A (absorbance value) ([3]; 1.67 μg/mL): 0.73 | A (absorbance value) ([3]; 2.50 μg/mL): 1.13 | A (absorbance value) ([3]; 5.00 μg/mL): 2.24 | A (absorbance value) ([3]; 50.0 μg/mL, estimated): ~22.4 (est) | Concentration dependence of absorbance ([3]; FIGS. 8 and 9): obeys the Beer-Lambert Law | Heating effect during extended near-infrared irradiation [1]: no heating effect loss | Change in absorbance after laser irradiation [1, 4]: no change

C#CCOCCN(Cc1ccccc1)c1ccc(C2=C([O-])/C(=C3C=C/C(=[N+](\CCOCC#C)Cc4ccccc4)S\3)C(=O)C2=O)s1 [Compound 2]
Ability to increase the temperature of a solution ([2]; 2.0 or 50.0 μg/mL, 4:1 MeOH/H2O, 780 or 808 nm, 250 mW): same ability as compound 1
